This is an account of results in paper PMC8216447, “Factors affecting the buccal delivery of deformable nanovesicles based on insulin–phospholipid complex: an in vivo investigation” (Drug Delivery, 2020).

The subject of the assay is normal rabbits. The assay is described as follows: In vivo hypoglycemic effect, rabbit esophageal ligation model. To be noted: insulin solution 3 mg/mL. The procedure:
The relative pharmacological bioactivity of insulin delivered via the transmucosal route by IPC-DNVs in different drug doses, delivery sites, ligation times, drug concentrations, sizes, and deformabilities was evaluated in normal rabbits by assessing the hypoglycemic effects. […] After fasting for 2 h, the rabbits were weighed and anesthetized with pentobarbital (2%, 50 mg/kg) through the ear margin vein. During anesthesia, the animals were restrained in a supine position to a board. The esophagus was surgically ligated to prevent swallowing. The drug solution for buccal administration (oral mucosa) was divided into four parts; two parts for administration via sublingual mucosa, and two parts for administration via left and right buccal mucosa. The sublingual mucosa and the buccal mucosa groups were administered only to the sublingual mucosa or buccal mucosa. After administration of the drug solution for 30 min (except the group with ligation time of 15 min), the esophagus was untied, and the response of the animals was observed. Blood samples were collected from the ear veins at predetermined time intervals (0, 0.5, 1, 1.5, 2, 2.5, 3, 3.5, 4, 4.5, 5, and 6 h) after DNVs administration and blood glucose levels were measured using a Blood Analyzer (ONETOUCH Ultra; Johnson & Johnson, New Brunswick, NJ, USA). […]

Turning to “Recombinant human insulin [insulin solution]”, for the setting “1 IU/kg, subcutaneous administration”, the hypoglycemic effect entry is reported as “evident”. For the same substance, the “glucose levels within 6 h after buccal administration” value (10 IU/kg, buccal administration (control)) is listed as “barely changed”.
